Measured values from publication PMC5218480 (PLoS ONE, 2017).

Test system: MV-4-11 cells
Experiment: Gene expression microarray analysis (Affymetrix PrimeView) and GSEA
Format: cell-based, human
Design: RFU PODN (11730768_x_at) / Fold change /veh PODN (11730768_x_at) / RFU LINC00158 (11744669_a_at) / Fold change /veh LINC00158 (11744669_a_at) / RFU DUSP10 (11751237_a_at) / Fold change /veh DUSP10 (11751237_a_at) / RFU ID3 (11757404_x_at) / Fold change /veh ID3 (11757404_x_at) / RFU PLEKHG5 (11737974_s_at) / Fold change /veh PLEKHG5 (11737974_s_at) / RFU LRRC4B (11730491_at) / Fold change /veh LRRC4B (11730491_at) / RFU GIMAP4 (11747438_a_at) / Fold change /veh GIMAP4 (11747438_a_at) / RFU KRT8 (11758183_x_at) / Fold change /veh KRT8 (11758183_x_at) / RFU CNN1 (11734310_a_at) / Fold change /veh CNN1 (11734310_a_at) / RFU VPS37D (11726825_at) / Fold change /veh VPS37D (11726825_at) / RFU C10orf10 (11716522_x_at) / Fold change /veh C10orf10 (11716522_x_at) / RFU KIR2DL2 /// KIR2DL4 /// KIR2DL5A /// KIR2DL5B /// KIR2DS1 /// KIR2DS2 /// KIR2DS3 /// KIR2DS4 /// KIR3DL3 /// KIR3DL3 /// KIR3DS1 (11738374_at) / Fold change /veh KIR2DL2 /// KIR2DL4 /// KIR2DL5A /// KIR2DL5B /// KIR2DS1 /// KIR2DS2 /// KIR2DS3 /// KIR2DS4 /// KIR3DL3 /// KIR3DL3 /// KIR3DS1 (11738374_at) / RFU C1QL1 (11718748_at) / Fold change /veh C1QL1 (11718748_at) / RFU TMPRSS4 (11747572_a_at) / Fold change /veh TMPRSS4 (11747572_a_at) / RFU HAMP (11756126_x_at) / Fold change /veh HAMP (11756126_x_at) / RFU RNFT2 (11725882_a_at) / Fold change /veh RNFT2 (11725882_a_at) / RFU NR4A2 (11747474_a_at) / Fold change /veh NR4A2 (11747474_a_at) / RFU ABCC12 (11746883_a_at) / Fold change /veh ABCC12 (11746883_a_at) / RFU TMEM136 (11760407_x_at) / Fold change /veh TMEM136 (11760407_x_at) / RFU CLDN22 /// WWC2 (11732394_at) / Fold change /veh CLDN22 /// WWC2 (11732394_at) / RFU HLA-DPB1 (11760878_x_at) / Fold change /veh HLA-DPB1 (11760878_x_at) / RFU SPINT1 (11716480_a_at) / Fold change /veh SPINT1 (11716480_a_at) / RFU GAP43 (11754022_s_at) / Fold change /veh GAP43 (11754022_s_at) / RFU A4GNT (11735810_at) / Fold change /veh A4GNT (11735810_at) / RFU PRB3 (11715151_x_at) / Fold change /veh PRB3 (11715151_x_at) / RFU TUBB4B (11761932_at) / Fold change /veh TUBB4B (11761932_at) / RFU CAPN14 (11732068_a_at) / Fold change /veh CAPN14 (11732068_a_at) / RFU TMCC2 (11721928_a_at) / Fold change /veh TMCC2 (11721928_a_at) / RFU IRGQ (11745062_a_at) / Fold change /veh IRGQ (11745062_a_at) / RFU FAM174B (11720279_a_at) / Fold change /veh FAM174B (11720279_a_at) / RFU TMPRSS4 (11748680_a_at) / Fold change /veh TMPRSS4 (11748680_a_at) / RFU FAM212B (11763350_a_at) / Fold change /veh FAM212B (11763350_a_at) / RFU PLEKHG5 (11743358_a_at) / Fold change /veh PLEKHG5 (11743358_a_at) / RFU ZSCAN30 (11745921_a_at) / Fold change /veh ZSCAN30 (11745921_a_at) / RFU CMKLR1 (11741424_a_at) / Fold change /veh CMKLR1 (11741424_a_at) / RFU LOC101060620 /// MAPK8IP1 (11723275_at) / Fold change /veh LOC101060620 /// MAPK8IP1 (11723275_at) / RFU SPTSSB (11747773_x_at) / Fold change /veh SPTSSB (11747773_x_at) / RFU PRSS12 (11739890_at) / Fold change /veh PRSS12 (11739890_at) / RFU BIN1 (11741810_x_at) / Fold change /veh BIN1 (11741810_x_at) / RFU WNT11 (11732464_a_at) / Fold change /veh WNT11 (11732464_a_at) / RFU C10orf10 (11716521_a_at) / Fold change /veh C10orf10 (11716521_a_at) / RFU C5orf56 (11738089_at) / Fold change /veh C5orf56 (11738089_at) / RFU CYB561 (11721691_x_at) / Fold change /veh CYB561 (11721691_x_at) / RFU ANKRD19P (11752326_a_at) / Fold change /veh ANKRD19P (11752326_a_at) / RFU OR2T12 /// OR2T33 /// OR2T8 (11738714_s_at) / Fold change /veh OR2T12 /// OR2T33 /// OR2T8 (11738714_s_at) / RFU VCAN (11748164_a_at) / Fold change /veh VCAN (11748164_a_at) / RFU JSRP1 (11732532_at) / Fold change /veh JSRP1 (11732532_at) / RFU KRTAP10-11 (11738290_x_at) / Fold change /veh KRTAP10-11 (11738290_x_at) / RFU MYO3A (11730013_a_at) / Fold change /veh MYO3A (11730013_a_at) / RFU EBF3 (11725865_a_at) / Fold change /veh EBF3 (11725865_a_at) / RFU CAMK2N1 (11719241_x_at) / Fold change /veh CAMK2N1 (11719241_x_at) / RFU C5orf56 (11738088_a_at) / Fold change /veh C5orf56 (11738088_a_at) / RFU OLFML3 (11715873_a_at) / Fold change /veh OLFML3 (11715873_a_at) / RFU LOC100653217 /// NTM (11731650_a_at) / Fold change /veh LOC100653217 /// NTM (11731650_a_at) / RFU MAPK11 (11762145_a_at) / Fold change /veh MAPK11 (11762145_a_at) / RFU FIZ1 (11724087_x_at) / Fold change /veh FIZ1 (11724087_x_at) / RFU OASL (11726364_x_at) / Fold change /veh OASL (11726364_x_at) / RFU SOX15 (11748057_x_at) / Fold change /veh SOX15 (11748057_x_at) / RFU CD79A (11719716_a_at) / Fold change /veh CD79A (11719716_a_at) / RFU HIST1H1D (11736915_at) / Fold change /veh HIST1H1D (11736915_at) / RFU CASKIN2 (11723855_a_at) / Fold change /veh CASKIN2 (11723855_a_at) / RFU LOC730098 (11760151_x_at) / Fold change /veh LOC730098 (11760151_x_at) / RFU OR4N2 (11742367_at) / Fold change /veh OR4N2 (11742367_at) / RFU PRRT2 (11749266_a_at) / Fold change /veh PRRT2 (11749266_a_at) / RFU SNX32 (11753110_a_at) / Fold change /veh SNX32 (11753110_a_at) / RFU CDHR5 (11726645_a_at) / Fold change /veh CDHR5 (11726645_a_at) / RFU RCAN1 (11760418_a_at) / Fold change /veh RCAN1 (11760418_a_at) / RFU FAM167A (11723789_a_at) / Fold change /veh FAM167A (11723789_a_at) / RFU FAM26E (11764081_at) / Fold change /veh FAM26E (11764081_at) / RFU ISYNA1 (11749810_s_at) / Fold change /veh ISYNA1 (11749810_s_at) / RFU ACY1 (11761880_at) / Fold change /veh ACY1 (11761880_at) / RFU 11764098_at / Fold change /veh 11764098_at / RFU SAMD14 (11745864_x_at) / Fold change /veh SAMD14 (11745864_x_at) / RFU NPB (11741838_a_at) / Fold change /veh NPB (11741838_a_at) / RFU TMPRSS6 (11731388_a_at) / Fold change /veh TMPRSS6 (11731388_a_at) / RFU KRTAP10-2 (11738614_at) / Fold change /veh KRTAP10-2 (11738614_at) / RFU ARHGAP8 /// PRR5-ARHGAP8 (11727945_x_at) / Fold change /veh ARHGAP8 /// PRR5-ARHGAP8 (11727945_x_at) / RFU KRTAP5-7 /// NADSYN1 (11734609_at) / Fold change /veh KRTAP5-7 /// NADSYN1 (11734609_at) / RFU RASL12 (11751679_a_at) / Fold change /veh RASL12 (11751679_a_at) / RFU CDKN2B (11736163_a_at) / Fold change /veh CDKN2B (11736163_a_at) / RFU PRF1 (11729649_at) / Fold change /veh PRF1 (11729649_at) / RFU, ZNF638 /// ZNF638-IT1 / Fold change vs veh, ZNF638 /// ZNF638-IT1 / RFU, PANK3 / Fold change vs veh, PANK3 / RFU, SH3YL1 / Fold change vs veh, SH3YL1 / RFU, ZEB2 / Fold change vs veh, ZEB2 / RFU, NRIP1 / Fold change vs veh, NRIP1 / RFU, PTTG1IP / Fold change vs veh, PTTG1IP / RFU, CAPN2 / Fold change vs veh, CAPN2 / RFU, MED14 / Fold change vs veh, MED14 / RFU, SNORA58 / Fold change vs veh, SNORA58 / RFU, C1orf63 / Fold change vs veh, C1orf63 / RFU, LRRFIP1 / Fold change vs veh, LRRFIP1 / RFU, NDUFAF7 / Fold change vs veh, NDUFAF7 / RFU, SLC12A2 / Fold change vs veh, SLC12A2 / RFU, IBTK / Fold change vs veh, IBTK / RFU, ESF1 / Fold change vs veh, ESF1 / Fold change vs veh, TMEM50B / RFU, TAOK1 / Fold change vs veh, TAOK1 / RFU, ACBD3 / Fold change vs veh, ACBD3 / RFU, TMA16 / Fold change vs veh, TMA16 / RFU, RWDD3 / Fold change vs veh, RWDD3 / RFU, BCAT1 / Fold change vs veh, BCAT1 / RFU, EDEM3 / Fold change vs veh, EDEM3 / RFU, TMEM33 / Fold change vs veh, TMEM33 / RFU, WDR75 / Fold change vs veh, WDR75 / RFU, AHCTF1 / Fold change vs veh, AHCTF1 / RFU, TFRC / Fold change vs veh, TFRC / RFU, ZDHHC17 / Fold change vs veh, ZDHHC17 / RFU, NOM1 / Fold change vs veh, NOM1 / RFU, ARL8B / Fold change vs veh, ARL8B / RFU, ZBTB11 / Fold change vs veh, ZBTB11 / RFU, TAMM41 / Fold change vs veh, TAMM41 / RFU, KIAA1704 /// LOC100996395 / Fold change vs veh, KIAA1704 /// LOC100996395 / RFU, ING1 / Fold change vs veh, ING1 / RFU, TRMT61B / Fold change vs veh, TRMT61B / RFU, FUBP3 / Fold change vs veh, FUBP3 / RFU, TP53 / Fold change vs veh, TP53 / RFU, TNKS2 / Fold change vs veh, TNKS2 / RFU, ZFP14 / Fold change vs veh, ZFP14 / RFU, ACTR2 / Fold change vs veh, ACTR2 / RFU, PPP3R1 / Fold change vs veh, PPP3R1 / RFU, PIK3R1 / Fold change vs veh, PIK3R1 / RFU, HNRNPA1 / Fold change vs veh, HNRNPA1 / RFU, RNF170 / Fold change vs veh, RNF170 / RFU, ZNF28 / Fold change vs veh, ZNF28 / RFU, RNGTT / Fold change vs veh, RNGTT / RFU, OGT / Fold change vs veh, OGT / RFU, BRD1 / Fold change vs veh, BRD1 / RFU, MARS / Fold change vs veh, MARS / RFU, ZNF655 / Fold change vs veh, ZNF655 / RFU, FAHD1 / Fold change vs veh, FAHD1 / RFU, BDP1 / Fold change vs veh, BDP1 / RFU, LRRCC1 / Fold change vs veh, LRRCC1 / RFU, ARID1A / Fold change vs veh, ARID1A / RFU, ZNF146 / Fold change vs veh, ZNF146 / RFU, ZNF330 / Fold change vs veh, ZNF330 / RFU, GPN3 / Fold change vs veh, GPN3 / RFU, C9orf123 / Fold change vs veh, C9orf123 / RFU, N4BP2L2 / Fold change vs veh, N4BP2L2 / RFU, ARFIP1 / Fold change vs veh, ARFIP1 / RFU, FAM179B / Fold change vs veh, FAM179B / RFU, BCL10 / Fold change vs veh, BCL10 / RFU, UHRF1BP1L / Fold change vs veh, UHRF1BP1L / RFU, BET1 / Fold change vs veh, BET1 / RFU, CNOT2 / Fold change vs veh, CNOT2 / RFU, ZNF268 / Fold change vs veh, ZNF268 / Fold change vs veh, ZNF507 / RFU, DGCR2 / Fold change vs veh, DGCR2 / RFU, WDSUB1 / Fold change vs veh, WDSUB1 / Fold change vs veh, HSP90B1 /// MIR3652 / RFU, ADSS / Fold change vs veh, ADSS / RFU, GK / Fold change vs veh, GK / RFU, ZNF148 / Fold change vs veh, ZNF148 / RFU, TAF9 / Fold change vs veh, TAF9 / RFU, SLC1A5 / Fold change vs veh, SLC1A5 / RFU, SLMO2 / Fold change vs veh, SLMO2 / RFU, ABCC4 / Fold change vs veh, ABCC4 / RFU, LOC101060439 /// RAP1B / Fold change vs veh, LOC101060439 /// RAP1B / RFU, RFX7 / Fold change vs veh, RFX7 / RFU, GTPBP10 / Fold change vs veh, GTPBP10 / RFU, CNEP1R1 / Fold change vs veh, CNEP1R1 / RFU, BIVM-ERCC5 /// ERCC5 / Fold change vs veh, BIVM-ERCC5 /// ERCC5 / RFU, ILF3 / Fold change vs veh, ILF3 / RFU 11762660_at / Fold change /veh 11762660_at / RFU VCAN (11757783_s_at) / Fold change /veh VCAN (11757783_s_at) / RFU DDX43 (11728927_at) / Fold change /veh DDX43 (11728927_at) / RFU KRT8 (11758188_x_at) / Fold change /veh KRT8 (11758188_x_at) / RFU NKD1 (11759106_at) / Fold change /veh NKD1 (11759106_at) / RFU SRD5A1 (11742802_a_at) / Fold change /veh SRD5A1 (11742802_a_at) / RFU TPSAB1 /// TPSB2 (11721975_s_at) / Fold change /veh TPSAB1 /// TPSB2 (11721975_s_at) / RFU GSTM3 (11746129_a_at) / Fold change /veh GSTM3 (11746129_a_at) / RFU IL23R (11737362_x_at) / Fold change /veh IL23R (11737362_x_at) / RFU TMEM51 (11727254_a_at) / Fold change /veh TMEM51 (11727254_a_at) / RFU PIWIL2 (11732686_x_at) / Fold change /veh PIWIL2 (11732686_x_at) / RFU ORM1 (11744905_x_at) / Fold change /veh ORM1 (11744905_x_at) / RFU CCDC152 (11743942_at) / Fold change /veh CCDC152 (11743942_at) / RFU ECM1 (11717891_a_at) / Fold change /veh ECM1 (11717891_a_at) / RFU IL23R (11748794_a_at) / Fold change /veh IL23R (11748794_a_at) / RFU TNFAIP8L3 (11732012_x_at) / Fold change /veh TNFAIP8L3 (11732012_x_at) / RFU MBOAT4 (11741988_at) / Fold change /veh MBOAT4 (11741988_at) / RFU 11764193_at / Fold change /veh 11764193_at / RFU TMEM53 (11763286_at) / Fold change /veh TMEM53 (11763286_at) / RFU MAGEB2 (11727129_at) / Fold change /veh MAGEB2 (11727129_at) / RFU TMEM200A (11744735_a_at) / Fold change /veh TMEM200A (11744735_a_at) / RFU CCDC152 (11751479_a_at) / Fold change /veh CCDC152 (11751479_a_at) / RFU FAM211A (11726209_a_at) / Fold change /veh FAM211A (11726209_a_at) / RFU RGS16 (11746705_a_at) / Fold change /veh RGS16 (11746705_a_at) / RFU VCAN (11755009_s_at) / Fold change /veh VCAN (11755009_s_at) / RFU RHOB (11743442_s_at) / Fold change /veh RHOB (11743442_s_at) / RFU RGS16 (11720943_a_at) / Fold change /veh RGS16 (11720943_a_at) / RFU RGS16 (11720944_at) / Fold change /veh RGS16 (11720944_at) / RFU, VPS4B / Fold change vs veh, VPS4B / RFU, CREB1 / Fold change vs veh, CREB1 / RFU, DNAJC13 / Fold change vs veh, DNAJC13 / RFU, GNAQ / Fold change vs veh, GNAQ / RFU, CDK5R1 / Fold change vs veh, CDK5R1 / RFU, ZRANB3 / Fold change vs veh, ZRANB3 / RFU, CUL4A / Fold change vs veh, CUL4A / RFU, CCNY / Fold change vs veh, CCNY / RFU, UFL1 / Fold change vs veh, UFL1 / RFU, COG3 / Fold change vs veh, COG3 / RFU, DIAPH2 / Fold change vs veh, DIAPH2 / RFU, SKA2 / Fold change vs veh, SKA2 / RFU, AFF3 / Fold change vs veh, AFF3 / RFU, LMF1 / Fold change vs veh, LMF1 / RFU, IPO11 / Fold change vs veh, IPO11 / RFU, DFFB / Fold change vs veh, DFFB / RFU, FOXP1 / Fold change vs veh, FOXP1 / RFU, CARD8 / Fold change vs veh, CARD8 / RFU, STRN3 / Fold change vs veh, STRN3 / RFU, ADK / Fold change vs veh, ADK / RFU, RASSF2 / Fold change vs veh, RASSF2 / RFU, WIPF1 / Fold change vs veh, WIPF1 / RFU, LARP1B / Fold change vs veh, LARP1B / RFU, RASA1 / Fold change vs veh, RASA1 / RFU, RB1 / Fold change vs veh, RB1 / RFU, PPFIA1 / Fold change vs veh, PPFIA1 / RFU, MAT2A / Fold change vs veh, MAT2A / RFU, CCT5 / Fold change vs veh, CCT5 / RFU, WDR92 / Fold change vs veh, WDR92 / RFU, CUX1 / Fold change vs veh, CUX1 / RFU, TTC7A / Fold change vs veh, TTC7A / RFU, TMEM135 / Fold change vs veh, TMEM135 / RFU, DEPTOR / Fold change vs veh, DEPTOR / RFU, CPM / Fold change vs veh, CPM / RFU, DNAJB6 / Fold change vs veh, DNAJB6 / RFU, CACNA2D3 / Fold change vs veh, CACNA2D3 / RFU, DTX4 / Fold change vs veh, DTX4 / RFU, TFCP2 / Fold change vs veh, TFCP2 / RFU, GMCL1 /// GMCL1P1 / Fold change vs veh, GMCL1 /// GMCL1P1 / RFU, AEBP2 / Fold change vs veh, AEBP2 / RFU, SNHG1 /// SNORD22 /// SNORD25 /// SNORD26 /// SNORD27 /// SNORD28 /// SNORD29 /// SNORD31 / Fold change vs veh, SNHG1 /// SNORD22 /// SNORD25 /// SNORD26 /// SNORD27 /// SNORD28 /// SNORD29 /// SNORD31 / Fold change (Aza/veh), C12orf56 (ProbeSet 11735607_a_at) / Fold change (ACY-1035/veh), C12orf56 (ProbeSet 11735607_a_at) / Fold change (Aza/veh), FGFR1OP (ProbeSet 11751329_s_at) / Fold change (ACY-1035/veh), FGFR1OP (ProbeSet 11751329_s_at) / Fold change (Aza/veh), VPS36 (ProbeSet 11739960_a_at) / Fold change (ACY-1035/veh), VPS36 (ProbeSet 11739960_a_at) / RFU SYPL1 (11715823_x_at) / Fold change /veh SYPL1 (11715823_x_at) / RFU IGFBP7 (11715501_s_at) / Fold change /veh IGFBP7 (11715501_s_at) / RFU REEP3 (11722064_at) / Fold change /veh REEP3 (11722064_at) / RFU IGLL1 (11728026_x_at) / Fold change /veh IGLL1 (11728026_x_at): dose or concentration left out as unconfirmed
Settings: ProbeSet 11721559_s_at; LIST B

In the case of `Nc1ccc(-c2cccs2)cc1NC(=O)c1ccc2c(c1)cc(C1CC1)n2CCN1CCOCC1` [ACY-1035], the “Fold change vs veh, ZNF638 /// ZNF638-IT1” value is reported as 0.85.
